Consider 4 compounds from patent US5969017A, “Methods of treating or preventing cardiac arrhythmia” (Merck & Co., Inc., priority 1997, dated 1999).

Assay [1] deals with other cardiac K+ channels. The experiment in a line: Block of the other cardiac K+ channels (IK1, IKr and IKs, summary). The format is cell-based, guinea pig. The conditions noted are these: summary of Table 2. The protocol: (§1) D. Measurement of IKs IKr and IK1 in Guinea Pig Ventricular Myocytes.
(§2) Guinea pig ventricular myocytes were isolated using a modification of the procedure described by Mitra et al., Am. J. Physiol. 249:H1056-60 (1985). Excised hearts were perfused through the aorta (retrograde fashion) at a rate of 10 ml/min with oxygenated, warmed (37° C.) solutions described below. The heart was initially perfused for 7 minutes with a Tyrode's solution containing, in mM: 132 NaCl, 4 KCl, 1.2 MgCl2, 10 HEPES, 5 glucose, pH=7.2. The heart was then perfused with the same nominally Ca^2+ -free solution containing 150 units/ml Type II collagenase (Worthington) and 0.5 units/ml Type XIV protease (Sigma) for 8 minutes. This perfusate was followed by a Tyrode's solution contianing 0.2 mM CaCl2 (without enzymes) for 5 minutes. The digested ventricles were cut into small pieces and gently shaken until cells were visibly dispersed. The cells were stored at room temperature until use, within 8 hours after isolation.
Microelectrode fabrication:
The suction microelectrode technique described by Giles, W. R. and Shibata, E. F., "Voltage clamp of bull-frog cardiac pacemaker cells: a quantitative analysis of potassium currents", J. Physiol. 368:265-292 (1985) was used to voltage clamp the cells. Microelectrodes were made by using a two stage puller from square bore (1.0 mm o.d.) borosilicate capillary tubing. Pipettes were filled with 0.5 M K gluconate, 25 mM KCl and 5 mM K2 ATP. The electrodes had resistances of 3 to 7 Mohm when filled with this solution. After establishing whole-cell recording mode, negative pressure was maintained on the pipette using a 1 ml gas-tight syringe attached via air tight tubing to the suction port of the microelectrode holder. This minimized dialysis of the cell with the pipette solution.
To record K^+ currents, the cells were bathed in a Ca^2+ -free Tyrode's solution containing […]. […] To record Ca^2+ currents, the cells were bathed in Tyrode's solution containing 1.8 mM Ca^2+ without nisoldipine. The cell chamber was superfused with solutions at a rate of 1-2 ml/minute, while maintaining the temperture at […]. A List EPC-7 clamp amplifier was used to voltage clamp the isolated cells. Series resistance was compensated 40-70%, and current was low-pass filtered at a cut-off frequency of 1 kHz. […] Data was analyzed as % block from control membrane currents.
Nisoldipine was prepared as a 4 mM stock solution in polyethylne glycol 200. […] At the final concentrations used, neither polyethylene glycol 200 nor dimethyl sulfoxide had any effect on any of the measured membrane currents.
Selectivity for block of cardiac K^+ channels, IK1, IKr, and IKs was determined as previously described in guinea pig ventricular myocytes (U.S. Pat. No. 5,428,031).

In assay [2] the test system is IK1. Description: Voltage clamp block of IK1 in guinea pig ventricular myocytes. The format is cell-based. The settings on record: 3 μM; guinea pig ventricle. The protocol:
as §1
as §2, with “The digested ventricles were cut into small pieces and gently shaken until cells were visibly dispersed. The cells were stored at room temperature until use, within 8 hours after isolation.” left out
(§3) The suction microelectrode technique described by Giles, W. R. and Shibata, E. F., "Voltage clamp of bull-frog cardiac pacemaker cells: a quantitative analysis of potassium currents", J. Physiol. […]
(§4) To record K^+ currents, the cells were bathed in a Ca^2+ -free Tyrode's solution containing 0.4 mM nisoldipine. […] Data was analyzed as % block from control membrane currents.
(§5) Nisoldipine was prepared as a 4 mM stock solution in polyethylne glycol 200. […] At the final concentrations used, neither polyethylene glycol 200 nor dimethyl sulfoxide had any effect on any of the measured membrane currents. […]

Assay [3] deals with T1, IKr (Cavia porcellus, UniProt O08703).
T1 construct: Guinea pig ventricular myocytes were isolated; endogenous in cells; host or cells: isolated guinea pig ventricular myocytes
T1 sequence (O08703 1-1294): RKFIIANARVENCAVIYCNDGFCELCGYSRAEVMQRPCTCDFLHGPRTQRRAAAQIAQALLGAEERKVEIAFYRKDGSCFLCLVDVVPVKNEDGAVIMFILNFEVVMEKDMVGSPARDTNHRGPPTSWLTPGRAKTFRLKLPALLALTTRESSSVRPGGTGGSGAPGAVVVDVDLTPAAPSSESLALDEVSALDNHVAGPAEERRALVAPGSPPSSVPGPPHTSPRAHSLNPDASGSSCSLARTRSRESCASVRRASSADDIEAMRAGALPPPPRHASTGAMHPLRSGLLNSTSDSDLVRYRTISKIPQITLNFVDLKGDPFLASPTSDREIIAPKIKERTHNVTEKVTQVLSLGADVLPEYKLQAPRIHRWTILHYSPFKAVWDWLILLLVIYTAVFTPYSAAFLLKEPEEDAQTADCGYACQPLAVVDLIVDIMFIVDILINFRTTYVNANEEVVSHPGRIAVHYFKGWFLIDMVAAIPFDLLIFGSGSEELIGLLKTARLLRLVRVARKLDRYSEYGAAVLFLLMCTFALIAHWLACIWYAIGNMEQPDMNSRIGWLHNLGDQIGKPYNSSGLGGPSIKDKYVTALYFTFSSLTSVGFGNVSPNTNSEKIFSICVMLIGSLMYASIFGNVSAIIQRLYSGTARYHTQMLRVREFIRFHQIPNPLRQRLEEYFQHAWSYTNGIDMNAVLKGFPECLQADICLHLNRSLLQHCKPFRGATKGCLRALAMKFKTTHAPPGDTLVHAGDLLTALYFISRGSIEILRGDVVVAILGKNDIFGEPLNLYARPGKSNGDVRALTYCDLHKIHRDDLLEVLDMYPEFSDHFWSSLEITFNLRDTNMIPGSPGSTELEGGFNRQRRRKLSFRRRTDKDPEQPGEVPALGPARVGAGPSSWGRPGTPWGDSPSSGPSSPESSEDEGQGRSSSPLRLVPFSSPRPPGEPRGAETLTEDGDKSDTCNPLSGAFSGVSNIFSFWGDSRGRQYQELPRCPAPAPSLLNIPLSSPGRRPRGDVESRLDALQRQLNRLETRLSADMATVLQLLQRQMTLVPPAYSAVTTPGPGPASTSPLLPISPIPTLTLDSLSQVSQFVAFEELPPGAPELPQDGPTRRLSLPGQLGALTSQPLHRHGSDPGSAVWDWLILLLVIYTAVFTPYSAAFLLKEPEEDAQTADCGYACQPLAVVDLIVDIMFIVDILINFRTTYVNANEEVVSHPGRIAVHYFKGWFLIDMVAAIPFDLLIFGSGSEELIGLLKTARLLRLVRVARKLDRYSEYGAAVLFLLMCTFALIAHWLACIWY
The experiment in a line: Voltage clamp block of IKr in guinea pig ventricular myocytes. The assay is classed as cell-based. The conditions noted are these: guinea pig ventricle. The protocol:
as §1
as §2, with “The digested ventricles were cut into small pieces and gently shaken until cells were visibly dispersed. The cells were stored at room temperature until use, within 8 hours after isolation.” left out
as §3, §4, §5

Assay [4] deals with T2, IKs (Cavia porcellus, UniProt O70344).
T2 construct: Guinea pig ventricular myocytes were isolated; endogenous in cells; host or cells: isolated guinea pig ventricular myocytes
T2 sequence (O70344 whole entry): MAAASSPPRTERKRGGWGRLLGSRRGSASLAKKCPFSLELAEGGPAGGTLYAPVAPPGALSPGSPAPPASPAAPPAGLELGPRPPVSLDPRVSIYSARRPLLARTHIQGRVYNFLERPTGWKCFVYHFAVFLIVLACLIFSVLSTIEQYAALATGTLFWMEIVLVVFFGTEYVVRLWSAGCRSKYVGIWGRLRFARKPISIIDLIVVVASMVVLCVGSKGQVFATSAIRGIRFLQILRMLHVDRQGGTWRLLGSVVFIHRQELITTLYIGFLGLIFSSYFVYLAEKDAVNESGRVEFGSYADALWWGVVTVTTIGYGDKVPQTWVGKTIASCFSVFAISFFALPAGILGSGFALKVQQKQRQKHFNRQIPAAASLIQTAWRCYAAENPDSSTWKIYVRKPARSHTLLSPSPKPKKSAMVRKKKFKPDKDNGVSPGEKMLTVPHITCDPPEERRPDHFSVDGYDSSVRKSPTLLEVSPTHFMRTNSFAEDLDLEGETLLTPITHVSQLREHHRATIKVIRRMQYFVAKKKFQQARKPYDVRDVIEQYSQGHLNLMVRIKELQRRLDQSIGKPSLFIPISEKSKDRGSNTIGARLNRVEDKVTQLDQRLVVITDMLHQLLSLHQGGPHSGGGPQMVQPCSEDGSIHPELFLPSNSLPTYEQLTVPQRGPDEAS
T2 sequence (Q60409 whole entry partner): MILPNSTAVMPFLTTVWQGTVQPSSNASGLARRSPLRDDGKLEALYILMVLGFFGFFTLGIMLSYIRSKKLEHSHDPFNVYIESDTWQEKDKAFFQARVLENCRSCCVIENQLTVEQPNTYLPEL
Description: Voltage clamp block of IKs in guinea pig ventricular myocytes. The format is cell-based. The settings on record: guinea pig ventricle. The protocol: as §1
as §2, with “The digested ventricles were cut into small pieces and gently shaken until cells were visibly dispersed. The cells were stored at room temperature until use, within 8 hours after isolation.” left out
as §3, §4, §5

As for `CC1CCC(C(C)C)C(P(=O)(c2ccccc2)c2ccccc2)C1` (stereo not shown) [A, (2-Isopropyl-5-methylcyclohexyl)diphenylphosphine oxide], in assay [1], the “blockade of the other cardiac K+ channels (in words)” value (“blockade” for short) was “minimal or absent”.

In the case of `Cc1cc(C)c(CP(=O)(c2ccccc2)c2ccccc2)c(-c2ccc(F)c(C)c2)c1` [B, 2-(Diphenylphosphinylmethyl)-4'-fluoro-3,5,3'-trimethyl-biphenyl], in assay [1], the “blockade” value is “minimal or absent”.

A word on the inhibition: it is the percentage by which the read-out fell short of the control. A low value points to a response near the control. As to `COc1ccc(-n2nc(Sc3ccc(Cl)cc3)c(C)c(C#N)c2=O)cc1` [C, 6-(4-Chlorophenylthio)-2-(4-methoxyphenyl)-5-methyl-3-oxo-2,3-dihydropyridazine-4-carbonitrile], in assay [2], the “% Block IK1” value came out at 0%. The inhibition at 3 µM in assay [3] is 8.4%; in assay [4], 0%. In addition, the “blockade” value in assay [1] is listed as “minimal or absent”.

On to `COc1ccc(-n2nc(Sc3ccc(C)cc3)c(C)c(C#N)c2=O)cc1` [D], for which, in assay [1], the “blockade” value is recorded as “minimal or absent”.
